System: CD19+CD11b+ and CD19+CD11b− cardiac lymphocytes
Test: Transcriptional profiling (RNAseq, KEGG) of sorted cardiac B lymphocytes
Type: in vivo, mouse
Conditions: DTR+PFD hearts vs naïve
From the text: To gain insight into the mechanism(s) responsible for the immunomodulatory effects of Pirfenidone, we performed transcriptional profiling on CD19+CD11b+ and CD19+CD11b− cardiac lymphocytes that were FACS sorted from naïve, DT-injured mice fed normal chow, and DT-injured mice treated with Pirfenidone chow. […]
We performed transcriptional profiling of cardiac lymphocytes that were isolated from naïve and DTR injured hearts in the presence and absence of Pirfenidone. […] Single-end, 50 bp reads were obtained on an Illumina HiSeq 3000 and aligned to the IIlumina iGenomes GRCm38_Ensembl release of the mouse transcriptome using Tophat2.1(41), yielding an average of 1.8×107 aligned reads per sample. Gene-level quantitation was performed using HTSeq 2(42). mRNAs were included in downstream analyses if present in all biological replicates in any of the 6 experimental groups (CD19+CD11b+ and CD19+CD11b− from WT, DT and DT+PFD) at an abundance of at least 1 read per million. […] KEGG pathways within the following 3 categories were analyzed: signal transduction (3.2), signaling molecules and interactions (3.3), and immune system (5.1).

Cc1ccc(=O)n(-c2ccccc2)c1 [Pirfenidone, 5 methyl-1-phenyl-2-[H] pyridone]
KEGG pathways enriched after DT injury in CD19+CD11b+ lymphocytes (6 pathways): not activated
KEGG pathways enriched after DT injury in CD19+CD11b− lymphocytes (with the exception of the hematopoietic cell lineage pathway): none of these pathways was significantly enriched

Reference: patent US12365651B2, “Use of pirfenidone and derivatives for modulation of B lymphocyte activity and organ protection from acute tissue damage” (Washington University, priority 2017, dated 2025)
